A short description of one data set: clinical. The note with it: female, human, in vivo.
For data set [1] the following is noted: female, human, in vivo.
Method: (§1) In order to evaluate the bioavailability of a peptide drug (calcitonin) administered via particle injection, with and without post administration patch occlusion (relative to subcutaneous injection), the following clinical study was carried out.
(§2) For subcutaneous injections, Miacalcic® calcitonin product was obtained from a commercial source and contained approximately 25 μg (100 IU) of salmon calcitonin (sCT) per ml. For particle injections, the calcitonin composition was formed from sCT at 8% w/w, PVP excipient at 2% w/w, in mannitol. The calcitonin composition was then lyophilized, compressed and then milled to produce particles suitable for use in a particle injection device. […] The 38-53 μm sieve fraction was obtained using a standard mesh screen.
(§3) All particle injections were carried out using a PowderJect® model ND1 needleless syringe fitted with a porous silencer (obtained from PowderJect Technologies, Inc., Fremont, Calif.). […] The devices were operated as described in the '796 patent, using a 60 bar gas source, in order to deliver the sCT particles.
(§4) Occlusive patches were produced by cutting Parafilm® discs which were held in-place by an adhesive dressing. In experimental groups receiving an occlusive dressing, the patch was placed on the skin covering the site of particle administration after sCT delivery and left in-place for the duration of the study (4 hours).
(§5) The overall approach involved measuring pharmacokinetic and pharmacodynamic response parameters following the sCT dose in 24 healthy female subjects. The trial was designed as a single center, open, parallel group trial.
(§6) Blood samples were collected via an indwelling catheter prior to and at 2, 5, 10, 20, 30, 45, 60, 90, 120, 180 and 240 minutes following administration of the calcitonin dose. sCT plasma concentrations were determined by ELISA (PPD Development, VA).

SMILES strings stand for the structures.

By Tmax is commonly meant the time at which the peak concentration occurs.

Method for clinical: as §1, §2, §3, §4, §5, §6

Take `CC(C)C[C@H](NC(=O)[C@H](CCCCN)NC(=O)CNC(=O)[C@H](CC(C)C)NC(=O)[C@@H](NC(=O)[C@@H]1CSSC[C@H](N)C(=O)N[C@@H](CO)C(=O)N[C@@H](CC(N)=O)C(=O)N[C@@H](CC(C)C)C(=O)N[C@@H](CO)C(=O)N[C@@H]([C@@H](C)O)C(=O)N1)C(C)C)C(=O)N[C@@H](CO)C(=O)N[C@@H](CCC(N)=O)C(=O)N[C@@H](CCC(=O)O)C(=O)N[C@@H](CC(C)C)C(=O)N[C@@H](Cc1c[nH]cn1)C(=O)N[C@@H](CCCCN)C(=O)N[C@@H](CC(C)C)C(=O)N[C@@H](CCC(N)=O)C(=O)N[C@H](C(=O)N[C@@H](Cc1ccc(O)cc1)C(=O)N1CCC[C@H]1C(=O)N[C@@H](CCCNC(=N)N)C(=O)N[C@H](C(=O)N[C@@H](CC(N)=O)C(=O)N[C@H](C(=O)NCC(=O)N[C@@H](CO)C(=O)NCC(=O)N[C@H](C(=O)N1CCC[C@H]1C(N)=O)[C@@H](C)O)[C@@H](C)O)[C@@H](C)O)[C@@H](C)O` [sCT, salmon calcitonin]: the Tmax in the data set “clinical” (sc) is 20 min; in “clinical” (topical or ocular, 300 ug), 5 min. Besides, the “mean bioavailability (BA) relative to the SC injection” value in data set [1] was 5.1%.

Source of the values: patent US20070196490A1, “Method of enhancing needleless transdermal powered drug delivery” (priority 1999, published 2007).
